Reference: patent US20130102638A1, “METHODS AND COMPOSITIONS FOR CONTROLLING ALGAE” (priority 2002, published 2013)

Assays:
Scenedesmus = experiment: Picolinafen on axenic Scenedesmus culture, total chlorophyll; assay type: cell-based; details: 10-day exposure
Procedure: (§1) A stock solution of 50 micrograms picolinafen/L was prepared from technical grade picolinafen. Axenic algal cultures of Scenedesmus and Ankistrodesmus (green phytoplankton), Pithophora and Oedogonium (filamentous green), and Anabaena, Oscillatoria, and Pseudanabaena (blue-green) were grown. Stock material from these cultures was placed in 250 ml of CLII media (a known, defined algal growth medium). Following the addition of the algae, picolinafen was added to the beakers to achieve concentrations of 0, 1.5, 5, 10, 25, and 50 ppb. Each treatment was replicated three times and beakers were placed in Percival growth chambers that were set at 25° C., with a light intensity of 300 micromoles/square meter/second and a 16:8 photoperiod. The algae were given a 10 to 14 day incubation period, and depending on the growth form of the algae, either total chlorophyll, cell counts, or algal biomass were quantified as end points.

Ankistrodesmus = experiment: Picolinafen on axenic Ankistrodesmus culture, cell counts; assay type: cell-based; details: 10-day exposure
Procedure: as §1

Anabaena = experiment: Picolinafen on axenic Anabaena culture, total chlorophyll; assay type: cell-based; details: for Total Chl: 10-day exposure
Procedure: as §1

Oscillatoria = experiment: Picolinafen on axenic Oscillatoria culture, total chlorophyll; assay type: cell-based; details: 10-day exposure
Procedure: as §1

Oedogonium = experiment: Picolinafen on axenic Oedogonium culture, total chlorophyll and biomass; assay type: cell-based; details: 10-day exposure
Procedure: as §1

Spirogyra = experiment: Picolinafen on Spirogyra culture, biomass; assay type: cell-based; details: 10-day exposure
Procedure: [The source words this procedure for another organism and reports this organism under the same test.] as §1

[1] = test system: Pseudanabaena (blue-green); experiment: Picolinafen on axenic Pseudanabaena culture, cell counts; assay type: cell-based; details: 10-day exposure
Procedure: as §1

[2] = test system: Pithophora (filamentous green); experiment: Picolinafen on axenic Pithophora culture, biomass; assay type: cell-based; details: 10-day exposure
Procedure: as §1

hydrilla = experiment: Impact on growth of hydrilla; assay type: in vivo; details: at levels showing significant control of the algal species
eurasian watermilfoil = experiment: Impact on growth of eurasian watermilfoil; assay type: in vivo; details: at levels showing significant control of the algal species
algal species = experiment: Algal culture exposure, overall observations; assay type: cell-based
Procedure: as §1

**Q.** What does the source list for `O=C(Nc1ccc(F)cc1)c1cccc(Oc2cccc(C(F)(F)F)c2)n1` [Picolinafen, N-(4-fluorophenyl)-6-[3-(trifluoromethyl)phenoxy]-2-pyridinecarboxamide]?
**A.** Total Chl (Scenedesmus; 1.5 ppb): 2427 (119) μg chl/g; Total Chl (Scenedesmus; 5 ppb): 87 (16) μg chl/g; Total Chl (Scenedesmus; 10 ppb): 15 (6) μg chl/g; Total Chl (Scenedesmus; 25 ppb): 17 (8) μg chl/g; Total Chl (Scenedesmus; 50 ppb): 12 (6) μg chl/g; Cell Count (Ankistrodesmus; 1.5 ppb): 3,025,323 cells/ml; Cell Count (Ankistrodesmus; 5 ppb): 141,246 cells/ml; Cell Count (Ankistrodesmus; 10 ppb): 96,622 cells/ml; Cell Count (Ankistrodesmus; 25 ppb): 87,012 cells/ml; Cell Count (Ankistrodesmus; 50 ppb): 81,706 cells/ml; tolerance of Anabaena compared to other algal species (Anabaena): highest level of tolerance; Total Chl (Anabaena; 1.5 ppb): 880 μg chl.; Total Chl (Anabaena; 5 ppb): 906 μg chl.; Total Chl (Anabaena; 10 ppb): 685 μg chl.; Total Chl (Anabaena; 25 ppb): 526 μg chl.; Total Chl (Anabaena; 50 ppb): 101 μg chl.; Total Chl (Oscillatoria; 1.5 ppb): 14 μg chl.; Total Chl (Oscillatoria; 5 ppb): 10 μg chl.; Total Chl (Oscillatoria; 10 ppb): 21 μg chl.; Total Chl (Oscillatoria; 25 ppb): 17 μg chl.; Total Chl (Oscillatoria; 50 ppb): 13 μg chl.; Biomass (Oedogonium; 1.5 ppb): 0.064 mg dry wt./beaker; Total Chl (Oedogonium; 1.5 ppb): 1522 μg chl.; Biomass (Oedogonium; 5 ppb): 0.027 mg dry wt./beaker; Total Chl (Oedogonium; 5 ppb): 1057 μg chl.; Biomass (Oedogonium; 10 ppb): 0.019 mg dry wt./beaker; Total Chl (Oedogonium; 10 ppb): 342 μg chl.; Biomass (Oedogonium; 25 ppb): 0.011 mg dry wt./beaker; Total Chl (Oedogonium; 25 ppb): 247 μg chl.; Biomass (Oedogonium; 50 ppb): 0.005 mg dry wt./beaker; Total Chl (Oedogonium; 50 ppb): 144 μg chl.; Biomass (Spirogyra; 1.5 ppb): 16.2 mg dry wt./beaker; Biomass (Spirogyra; 5 ppb): 6.9 mg dry wt./beaker; Biomass (Spirogyra; 10 ppb): 3.0 mg dry wt./beaker; Biomass (Spirogyra; 25 ppb): 3.8 mg dry wt./beaker; Biomass (Spirogyra; 50 ppb): 3.3 mg dry wt./beaker; Cell Count ([1]; 1.5 ppb): 2,344 cells/ml; Cell Count ([1]; 5 ppb): 89 cells/ml; Cell Count ([1]; 10 ppb): 52 cells/ml; Cell Count ([1]; 25 ppb): 98 cells/ml; Cell Count ([1]; 50 ppb): 77 cells/ml; Biomass ([2]; 1.5 ppb): 26.2 mg dry wt./beaker; Biomass ([2]; 5 ppb): 19.1 mg dry wt./beaker; Biomass ([2]; 10 ppb): 20.4 mg dry wt./beaker; Biomass ([2]; 25 ppb): 14.8 mg dry wt./beaker; Biomass ([2]; 50 ppb): 11.4 mg dry wt./beaker; impact upon the growth of hydrilla (hydrilla): substantially no impact; impact upon the growth of eurasian watermilfoil (eurasian watermilfoil): substantially no impact; sensitivity of most algal species (algal species; concentrations of 10 ppb and less): highly sensitive; time to bleaching (visual observations) (algal species; some of the test species): ≤ 12 h; algacidal versus herbicidal activity in the aquatic environment (algal species; two aquatic macrophyte species compared with various algal species): greater algacidal than herbicidal activity
